# According to patent publication US9605285B2, “Compositions and methods for succinate production” (CARGILL, INCORPORATED, priority 2011, dated 2017):
# System: yeast cells
# Assay: EMS mutagenesis of yeast cells
# Assay type: cell-based
# Conditions: 3 μL EMS per 200 μL cell suspension, approximately one hour
# Protocol: For example, yeast cells from a fresh YP (yeast extract/peptone)+20 g/L glucose plate or liquid culture (OD600 1-4) are resuspended in sterile water to an OD600 of around 10. 200 μL aliquots of this cell suspension are pipetted into individual tubes and exposed to 3 μL […] (EMS) for approximately one hour, which kills around 65% of the cells. Higher EMS concentrations can also be used to increase the kill rate. After exposure, cells are neutralized with 5% sodium thiosulfate, washed in PBS buffer, recovered in rich media for approximately four hours, and cultured on selective media. Mock samples (no EMS) are also run to ensure that the conditions are selective. Alternatively, cell can be mutagenized using UV irradiation.
compound,measurement,value
"CCOS(C)(=O)=O [EMS, ethane methyl sulfonate]",Cells killed,around 65%
